# Values of other authors, collected in patent publication US7632826B2, “Use of agonists of the glucocorticosteroid and/or mineralo-corticosteroid receptors, in particular corticosteroids for the treatment of addiction” (Curamentis Ltd., priority 1998, dated 2009).
structure (smiles),measurement,setting,value
CC(=O)NCCCS(=O)(=O)O [acamprosate],Patients still abstinent,"Austria (Whitworth et al., 1996), placebo 21%",30%
same,Patients of the verum group still abstinent at end of study,"German part of the study (Sass et al., 1996), after 48 weeks of treatment, placebo 20%",42%
same,Addicted patients who did not achieve permanent abstinence despite treatment,"average in Europe, placebo 85%",approximately 70%
